# Values quoted from earlier work as cited in patent publication US4513029A, “Sea water antifouling method” (priority 1982, dated 1985).
# Test system: mice
# Conditions: oral administration to mice (after 24 hours)
smiles,measurement,value
[OH][Sn]([c]1ccccc1)([c]1ccccc1)[c]1ccccc1 [triphenyltin hydroxide],LD50,"not more than 1,000 mg/kg"
[Cu].[O]=[Cu] [copper suboxide],LD50,"not more than 1,000 mg/kg"
CC(=O)[O-].c1cc[c]([Sn+]([c]2ccccc2)[c]2ccccc2)cc1 [tripenyltin acetate],LD50,"not more than 1,000 mg/kg"
[Cl][Sn]([c]1ccccc1)([c]1ccccc1)[c]1ccccc1 [triphenyltin chloride],LD50,"not more than 1,000 mg/kg"
